Measured values from patent US20090202439A1, “Methods for treatment of angiogenesis” (The Johns Hopkins University, priority 2004, published 2009).
Read-outs that look alike come from different tables or passages of the source.

Columns and labels:
PECAM-1 [1] = assay: PECAM-1 protein expression by Western immunoblot in HUVECs; type: cell-based, human; conditions: for bypass of inhibitory effect of D-PDMP on VEGF induced PECAM-1 protein expression: HUVECs treated with D-PDMP, then lipid; for PECAM-1 expression induced by lipid: 2.5 μM for 4 hrs; for VEGF/LacCer induced PECAM-1: HUVECs pre-treated with NAC, DPI or PDTC; for reversal of inhibitory effect of PPMP on VEGF induced PECAM-1 expression: PPMP 90 min, then lipid 2.5 μM 4 hrs, GlcCer to a lesser extent than LacCer
Method: Cell Culture—Human umbilical vein endothelial cells (HUVEC) and endothelial cells growth medium EGM™ were purchased from Cambrex, (Walkersville, Md.) and were cultured in EGM™ medium supplemented with 10% fetal bovine serum (FBS).
Western Immunoblot Analysis—[…] of protein was resolved by 10% SDS-PAGE and then transferred to nitrocellulose membrane. The membrane-bound primary antibodies were visualized by horseradish peroxidase-conjugated secondary antibody using chemiluminescence kit. The films were then densitometrically scanned using Molecular Dynamics Image Scanner and analyzed using Image Quant software.

HUVECs = assay: In vitro angiogenesis/tube formation assay in HUVECs; type: cell-based, human; conditions: for bypass of inhibitory effect of D-PDMP on VEGF induced angiogenesis: HUVECs treated with D-PDMP, then lipid; for reversal of inhibitory effect of PPMP on VEGF induced angiogenesis: then lipid 2.5 μM 4 hrs, GlcCer to a lesser extent than LacCer
Method: (§1) In vitro angiogenesis/tube formation assay—In vitro angiogenesis assay was performed using a commercially available kit from Chemicon Inc (Temecula, Calif.).

NF-κB = assay: Cytosolic NF-κB expression in HUVECs; type: cell-based, human; conditions: HUVECs pre-treated with NAC, DPI or PDTC
PECAM-1 [2] = assay: PECAM-1 mRNA expression by real-time RT-PCR in HUVECs; type: cell-based, human
GbOse3Cer = GbOse3Cer synthesis in HUVECs; type: cell-based, human; conditions: cells treated with VEGF, with and without D-PDMP (data not shown)
HUVEC = assay: Apoptosis in HUVEC; type: cell-based, human; conditions: D-PDMP 20 μM up to 4-6 hrs, HUVEC (data not shown)
GlcCer = conditions: HUVECs
LacCer synthase = conditions: previously shown; cited from earlier work
GalT-V [3] = assay: GalT-V protein expression by immunoblot in siRNA transfected HUVECs; type: cell-based, human; conditions: siRNA duplex 100 nM, 48 hrs after transfection
Method: Next, 48 hrs after transfection cells were harvested lysed, and GalT-V protein levels were analyzed by immunoblot probed with GalT-V antibody or b-actin, as shown in the figure. GalT-V expression was expressed as % control, when normalized with b-actin expression and the relative quantification values are shown below the immunoblot. (C) HUVECs were transfected with either scrambled GalT-V siRNA (100 nM) or GalT-V siRNA (100 nM). […] The data shown is representative of two identical experiments yielding similar result. […] HUVECs were transfected with siRNA duplexes using Oligofectamine (Invitrogen), following protocol supplied by the manufacturer. Western Immunoblot Analysis-25 g of protein was resolved by 10% SDS-PAGE and then transferred to nitrocellulose membrane. The membrane-bound primary antibodies were visualized by horseradish peroxidase-conjugated secondary antibody using chemiluminescence kit. The films were then densitometrically scanned using Molecular Dynamics Image Scanner and analyzed using Image Quant software.

GalT-V [4] = assay: LacCer synthase (GalT-V) enzyme activity in siRNA transfected HUVECs; type: cell-based, human; conditions: siRNA 100 nM, compared with scrambled siRNA treated cells
Method: (C) HUVECs were transfected with either scrambled GalT-V siRNA (100 nM) or GalT-V siRNA (100 nM). 48 hrs post transfection, cells were lysed and Cer synthase enzyme activity was performed as described in “Materials and Methods”. […] HUVECs were transfected with siRNA duplexes using Oligofectamine (Invitrogen), following protocol supplied by the manufacturer.

REN (WT) cells = assay: In vitro angiogenesis assay in REN (WT) cells lacking PECAM-1; type: cell-based, human; conditions: VEGF 25 ng/ml or LacCer 2.5 μM 4 hrs, compared with 2% FBS treated cells
Method: (§2) REN (WT) [A] were either stimulated with VEGF (25 ng/ml) [B]; LacCer (2.5 μM) [C] or REN (rhPECAM-1) [D] with VEGF (25 ng/ml) (E) or LacCer [F] for 4 hrs and then in vitro angiogenesis assays were performed as described earlier. Results shown here are from set of experiments performed in triplicate yielding similar results.
(§3) Cell Culture—Human umbilical vein endothelial cells (HUVEC) and endothelial cells growth medium EGM™ were purchased from Cambrex, (Walkersville, Md.) and were cultured in EGM™ medium supplemented with 10% fetal bovine serum (FBS). Human mesoendothelioma cell line [(REN— wild type (WT)] which lacks endogenous PECAM-1 expression and REN (mt-rhPECAM-1) expressing human PECAM-1 was kindly provided by Dr. Steven Albelda, University of Pennsylvania Medical Center, USA. REN-WT was grown in RPMI 1640 supplemented with 101/&FBS. REN (mtrhPECAM-1) was cultured in the same medium with G418 (0.5 g/L Gibco).
as §1

REN (mt-rhPECAM-1) = assay: In vitro angiogenesis assay in REN cells transfected with human PECAM-1 gene; type: cell-based; conditions: REN transfected with human PECAM-1 gene, VEGF 25 ng/ml or LacCer 4 hrs, compared with control
Method: as §2, §3, §1

[5] = D-PDMP 20 μM for 90 min, then VEGF 25 ng/ml
[6] = CC 5.0 μM, GÖ 6850 and 6976 50 nM, BPB 10 μM, MAFP 3.0 μM, compared with vehicle (DMSO)
[7] = HUVECs pretreated with PPMP 20 μM
[8] = VEGF 25 ng/ml 4 hrs, compared to scrambled siRNA transfected cells
[9] = cells treated with increasing concentrations of L-PDMP
[10] = HUVECs, VEGF 30 ng/ml for 4 hrs

## CCCCCCCCCCCCC/C=C/[C@@H](O)[C@H](CO)NC(C)=O [C2ceramide]
PECAM-1 [1]
  bypass of inhibitory effect of D-PDMP on VEGF induced PECAM-1 protein expression: failed to bypass
PECAM-1 [1]; HUVECs
  PECAM-1 expression induced by lipid: did not induce
HUVECs
  bypass of inhibitory effect of D-PDMP on VEGF induced angiogenesis: failed to bypass

## S=C(S)N1CCCC1 [PDTC, 1-pyrrolidinecarbodithioicacid]
PECAM-1 [1]
  VEGF/LacCer induced PECAM-1: significantly blunted
NF-κB
  VEGF/LacCer induced cytosolic NF-κB expression: significantly blunted

## digalactosylceramide [DGDG]
PECAM-1 [1]
  bypass of inhibitory effect of D-PDMP on VEGF induced PECAM-1 protein expression: failed to bypass
PECAM-1 [1]; HUVECs
  PECAM-1 expression induced by lipid: did not induce
HUVECs
  bypass of inhibitory effect of D-PDMP on VEGF induced angiogenesis: failed to bypass

## CCCCCCCCCC(=O)N[C@H](CN1CCOCC1)[C@H](O)c1ccccc1 [D-PDMP, (1R,2R)-1-phenyl-2-decanoylamino-3-morpholino-1-propanol]
PECAM-1 [2]; [5]
  VEGF induced PECAM-1 mRNA expression: abrogated
PECAM-1 [1]; [5]
  VEGF induced PECAM-1 protein expression: abrogated
PECAM-1 [1]; HUVECs pre-incubated with D-PDMP 10-30 μM, then VEGF 25 ng/ml 4 hrs
  VEGF-induced PECAM-1 expression: concentration-dependent inhibition
GbOse3Cer
  level of GbOse3Cer synthesis: similar
HUVECs; HUVECs, D-PDMP
  VEGF induced angiogenesis: significantly mitigated
HUVEC
  apoptosis: did not induce apoptosis
LacCer; HUVECs pretreated with 20 μM D-PDMP, then VEGF 25 ng/ml
  VEGF induced LacCer biosynthesis: mitigated
GlcCer; D-PDMP 20 μM pretreatment, as early as 10 min
  VEGF induced GlcCer synthesis: inhibited
LacCer synthase
  action on LacCer synthase: inhibitor of purified LacCer synthase

## bromophenacyl bromide [BPB]
PECAM-1 [1]
  VEGF/LacCer induced PECAM-1 expression: abrogated
HUVECs
  VEGF/LacCer induced tube formation: abrogated

## Cn1c2ccccc2c2c3c(c4c5ccccc5n(CCC#N)c4c21)CNC3=O [GÖ 6976]
PECAM-1 [1]; [6]
  VEGF/LacCer induced PECAM-1 expression: abrogated
HUVECs; [6]
  VEGF/LacCer induced tube formation: abrogated

## CC(C)c1cc(/C=C(\C#N)C(=O)NCCCc2ccccc2)cc(C(C)C)c1O [SU 1498]
HUVECs; HUVECs pre-treated with SU 1498 1 hr, then LacCer
  LacCer induced tube formation/angiogenesis: not LacCer
HUVECs; HUVECs pre-treated with SU 1498 1 hr, then VEGF
  VEGF induced tube formation/angiogenesis: failed to induce tube formation/angiogenesis

## CCCCCCCCCCCCCCCC(=O)NC(CN1CCOCC1)C(O)c1ccccc1 (centres unmarked) [PPMP]
PECAM-1 [1]; [7]
  VEGF induced PECAM-1 expression: mitigation
HUVECs; [7]
  VEGF induced angiogenesis: mitigation

## GalT-V specific siRNA duplex: siRNA for human GalT-V: 5′-CGG AGU GAG UGG CUU AAC A dTdT-3′ (sense), 5′-UGU UAA GCC ACU CAC UCC G dTdT-3′ (antisense) (sense CGGAGUGAGUGGCUUAACATT; antisense UGUUAAGCCACUCACUCCGTT; chemistry not fully specified)
PECAM-1 [1]; [8]
  PECAM-1 expression in GalT-V silenced cells treated with VEGF: No change
HUVECs; [8]
  angiogenesis in GalT-V silenced cells treated with VEGF: blunted
GalT-V [3]
  decrease of GalT-V protein expression: ~70%
GalT-V [4]
  decrease of GalT-V enzyme activity: ~62%

## c1ccc2c(c1)[I+]c1ccccc1-2 [DPI, diphenylene iodonium]
PECAM-1 [1]
  VEGF/LacCer induced PECAM-1: significantly blunted
NF-κB
  VEGF/LacCer induced cytosolic NF-κB expression: significantly blunted

## CCCCCCCCCC(=O)N[C@@H](CN1CCOCC1)[C@@H](O)c1ccccc1 [L-PDMP]
PECAM-1 [1]; [9]
  PECAM-1 expression: significantly induced
HUVECs; [9]
  angiogenesis: significantly induced
LacCer synthase
  action on LacCer synthase: potent activator

## Vascular endothelial growth factor [VEGF]
PECAM-1 [2]; HUVECs, VEGF 25 ng/ml, different time points
  time of maximal PECAM-1 mRNA expression: 4 to 5 h
PECAM-1 [2]; [10]
  PECAM-1 mRNA expression: Maximal
PECAM-1 [2]; HUVECs, VEGF 5-30 ng/ml
  PECAM-1 mRNA expression: dose-dependent increase
PECAM-1 [1]; HUVECs, VEGF 25 ng/ml, various time intervals
  time of maximal PECAM-1 protein expression: 4 h
PECAM-1 [1]; [10]
  PECAM-1 protein expression: maximal
REN (WT) cells
  tube formation: failed to form tube-like structures
REN (mt-rhPECAM-1)
  tube formation: induced tube formation
LacCer; HUVECs, VEGF 25 ng/ml, time-dependent, from 10 min
  de novo biosynthesis of LacCer: significantly stimulated
GlcCer; VEGF 25 ng/ml
  biosynthesis of GlcCer: stimulated

## glucosylceramide [GlcCer]
PECAM-1 [1]
  bypass of inhibitory effect of D-PDMP on VEGF induced PECAM-1 protein expression: failed to bypass
PECAM-1 [1]; HUVECs
  PECAM-1 expression induced by lipid: did not induce
  reversal of inhibitory effect of PPMP on VEGF induced PECAM-1 expression: also reversed
HUVECs
  bypass of inhibitory effect of D-PDMP on VEGF induced angiogenesis: failed to bypass
HUVECs; HUVECs
  reversal of inhibitory effect of PPMP on VEGF induced angiogenesis: also reversed

## Lactosylceramide [LacCer]
PECAM-1 [2]; D-PDMP 20 μM 90 min, then VEGF 25 ng/ml and LacCer 2.5 μM 4 hrs
  bypass of D-PDMP inhibition of PECAM-1 mRNA expression: bypassed
PECAM-1 [1]
  bypass of inhibitory effect of D-PDMP on VEGF induced PECAM-1 protein expression: bypassed
PECAM-1 [1]; HUVECs
  PECAM-1 expression induced by lipid: significantly induced
  reversal of inhibitory effect of PPMP on VEGF induced PECAM-1 expression: reversed
HUVECs; HUVECs
  reversal of inhibitory effect of PPMP on VEGF induced angiogenesis: reversed
HUVECs; HUVECs, independent of presence/absence of D-PDMP and VEGF
  induction of angiogenesis: significantly induced
REN (WT) cells
  tube formation: failed to form tube-like structures
REN (mt-rhPECAM-1)
  tube formation: induced tube formation

## CC(=O)N[C@@H](CS)C(=O)O [NAC, N-Acetyl-L-cysteine]
PECAM-1 [1]
  VEGF/LacCer induced PECAM-1: significantly blunted

## CN(C)CCCn1cc(C2=C(c3c[nH]c4ccccc34)C(=O)NC2=O)c2ccccc21 [GÖ 6850]
PECAM-1 [1]; [6]
  VEGF/LacCer induced PECAM-1 expression: abrogated
HUVECs; [6]
  VEGF/LacCer induced tube formation: abrogated
